Measured values from US9765056B2, “Indole and pyrrole compounds, a process for their preparation and pharmaceutical compositions containing them” (LES LABORATOIRES SERVIER, priority 2013, dated 2017).
Counter-ions that a name gives are not always drawn.

Columns and labels:
Bcl-2 protein = Bcl-2 protein (histag-Bcl-2, UniProtKB P10415) (Homo sapiens (Human), UniProt P10415); assay: Inhibition of Bcl-2 by the fluorescence polarisation technique; type: binding; conditions: fluorescence polarisation test; method A, or method B where underlined (underlining not visible); read-out: IC50 (nM) Bcl-2 FP
Description: Inhibition of Bcl-2 by the fluorescence polarisation technique

[1] = tested on: cleaved form of caspase 3; assay: Quantification of the cleaved form of caspase 3 in vivo (MSD ELISA) in RS4;11 xenograft tumour lysates; parameters: species or system mice (SCID strain); conditions: oral route
Description: Quantification of the Cleaved Form of Caspase 3 In Vivo
The ability of the compounds of the invention to activate caspase 3 is evaluated in a xenograft model of RS4;11 leukaemia cells.
1×10^7 RS4;11 cells are grafted subcutaneously into immunosuppressed mice (SCID strain). 25 to 30 days after the graft, the animals are treated orally with the various compounds. After treatment, the tumour masses are recovered (after a time period T) and lysed, and the cleaved (activated) form of caspase 3 is quantified in the tumour lysates.
This quantification is carried out using the “Meso Scale Discovery (MSD) ELISA platform” test, which specifically assays the cleaved form of caspase 3. It is expressed in the form of an activation factor corresponding to the ratio between the quantity of cleaved caspase 3 in the treated mice divided by the quantity of cleaved caspase 3 in the control mice.

[2] = tested on: RS4;11 leukaemia tumour line; assay: In vitro cytotoxicity, Microculture Tetrazolium Assay (MTT); type: cell-based; conditions: Homo sapiens; RS4;11 cells, 48 hours exposure
Description: The cytotoxicity studies were carried out on the RS4;11 leukaemia tumour line.
The cells are distributed onto microplates and exposed to the test compounds for 48 hours. The cell viability is then quantified by a colorimetric assay, the Microculture Tetrazolium Assay (Cancer Res., 1987, 47, 939-942).

[3] = 25 mg/kg, tumour removed after 2 h

Sequence of Bcl-2 protein (P10415 whole entry): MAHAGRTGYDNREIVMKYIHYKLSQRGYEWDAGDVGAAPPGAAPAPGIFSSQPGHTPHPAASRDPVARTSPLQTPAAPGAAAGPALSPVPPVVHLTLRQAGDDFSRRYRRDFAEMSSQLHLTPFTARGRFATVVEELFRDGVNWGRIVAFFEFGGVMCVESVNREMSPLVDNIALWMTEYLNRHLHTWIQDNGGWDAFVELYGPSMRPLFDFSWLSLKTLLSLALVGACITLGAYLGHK

Row | SMILES | IC50 (Bcl-2 protein) [nM] | Activation factor ± SEM (versus control), cleaved caspase 3 MSD test [1, 3] | IC50 [2] [nM] | Activation factor ± SEM (versus control), cleaved caspase 3 MSD test ([1]; 100 mg/kg, tumour removed after 16 h) | Activation factor ± SEM (versus control), cleaved caspase 3 MSD test ([1]; 125 mg/kg, tumour removed after 2 h)
1 | Cl.Cn1ccc2cc(N(C(=O)c3cn(-c4cc5c(cc4C(=O)N4Cc6ccccc6C[C@H]4CN4CCOCC4)OCO5)c4c3CCCC4)c3ccc(O)cc3)cnc21 [Example 207, N-(4-Hydroxyphenyl)-N-(1-methyl-1H-pyrrolo[2,3-b]pyridin-5-yl)-1-(6-{[(3S)-3-(morpholin-4-ylmethyl)-3,4-dihydroisoquinolin-2(1H)-yl]carbonyl}-1,3-benzodioxol-5-yl)-4,5,6,7-tetrahydro-1H-indole-3-carboxamide hydrochloride] | 20.3 | 14.6 ± 4.4 | 22.2 | – | –
2 | Cc1c(C(=O)N(c2ccc(O)cc2)c2cc(C#N)n(C)c2C)cn(-c2cc(Cl)ccc2C(=O)N2Cc3ccccc3C[C@H]2CN2CCOCC2)c1C.Cl [Example 211, 1-(5-Chloro-2-{[(3S)-3-(morpholin-4-ylmethyl)-3,4-dihydroisoquinolin-2(1H)-yl]carbonyl}phenyl)-N-(5-cyano-1,2-dimethyl-1H-pyrrol-3-yl)-N-(4-hydroxyphenyl)-4,5-dimethyl-1H-pyrrole-3-carboxamide hydrochloride] | 3.7 | 94.7 ± 9.8 | 46.9 | – | –
3 | Cl.O=C(c1cn(-c2cc3c(cc2C(=O)N2Cc4ccccc4C[C@H]2CN2CCOCC2)OCO3)c2ccccc12)N(c1ccccc1)c1ccc(O)cc1 [Example 184, N-(4-Hydroxyphenyl)-1-{6-[(3S)-3-(morpholin-4-ylmethyl)-1,2,3,4-tetrahydroisoquinoline-2-carbonyl]-2H-1,3-benzodioxol-5-yl}-N-phenyl-1H-indole-3-carboxamide hydrochloride] | 14.1 | – | 154 | 15.1 | –
4 | Cc1c(C(=O)N(c2ccc(O)cc2)c2cnc3c(c2)CCN3C)cn(-c2cc(Cl)ccc2C(=O)N2Cc3ccccc3C[C@H]2CN2CCOCC2)c1C.Cl [Example 210, 1-(5-Chloro-2-{[(3S)-3-(morpholin-4-ylmethyl)-3,4-dihydroisoquinolin-2(1H)-yl]carbonyl}phenyl)-N-(4-hydroxyphenyl)-4,5-dimethyl-N-(1-methyl-2,3-dihydro-1H-pyrrolo[2,3-b]pyridin-5-yl)-1H-pyrrole-3-carboxamide hydrochloride] | 3.1 | – | 64.7 | – | 36.3 ± 13.3
5 | CN1CCN(C[C@@H]2Cc3ccccc3CN2C(=O)c2cc(NC(=O)CSc3ccccc3)ccc2-n2cc(C(=O)N(c3ccccc3)c3ccc(O)cc3)c3ccccc32)CC1 [Example 163, N-(4-Hydroxyphenyl)-1-{2-[(3S)-3-[(4-methylpiperazin-1-yl)methyl]-1,2,3,4-tetrahydroisoquinoline-2-carbonyl]-4-[2-(phenylsulphanyl)acetamido]phenyl}-N-phenyl-1H-indole-3-carboxamide] | 22.8 | – | 292 | – | –
6 | CN1CCN(C[C@@H]2Cc3ccccc3CN2C(=O)c2cc3c(cc2-n2cc(C(=O)N(c4ccccc4)c4ccc(O)cc4)c4ccccc42)OCCO3)CC1 [Example 170, N-(4-Hydroxyphenyl)-1-{7-[(3S)-3-[(4-methylpiperazin-1-yl)methyl]-1,2,3,4-tetrahydroisoquinoline-2-carbonyl]-2,3-dihydro-1,4-benzodioxin-6-yl}-N-phenyl-1H-indole-3-carboxamide] | 16.8 | – | 177 | – | –
7 | CN1CCN(C[C@@H]2Cc3ccccc3CN2C(=O)c2cc3c(cc2-n2cc(C(=O)N(c4ccc(O)c(Cl)c4)c4ccc5c(ccn5C)c4)c4ccccc42)OCO3)CC1 [Example 81, N-(3-Chloro-4-hydroxyphenyl)-N-(1-methyl-1H-indol-5-yl)-1-(6-{[(3S)-3-[(4-methylpiperazin-1-yl)methyl]-3,4-dihydroisoquinolin-2(1H)-yl]carbonyl}-1,3-benzodioxol-5-yl)-1H-indole-3-carboxamide hydrochloride] | 83.8 | – | 652 | – | –
8 | CN1CCN(C[C@@H]2Cc3ccccc3CN2C(=O)c2cc3c(cc2-n2cc(C(=O)N(c4ccc(O)cc4)c4ccc(F)c(Cl)c4)c4ccccc42)OCO3)CC1 [Example 58, N-(3-Chloro-4-fluorophenyl)-N-(4-hydroxyphenyl)-1-(6-{[(3S)-3-[(4-methylpiperazin-1-yl)methyl]-3,4-dihydroisoquinolin-2(1H)-yl]carbonyl}-1,3-benzodioxol-5-yl)-1H-indole-3-carboxamide hydrochloride] | 20.5 | – | 190 | – | –
9 | CN1CCN(C[C@@H]2Cc3ccccc3CN2C(=O)c2cc3c(cc2-n2cc(C(=O)N(c4ccccc4)c4ccc(O)cc4)c4ccc(F)cc42)OCO3)CC1 [Example 197, 6-Fluoro-N-(4-hydroxyphenyl)-1-{6-[(3S)-3-[(4-methylpiperazin-1-yl)methyl]-1,2,3,4-tetrahydroisoquinoline-2-carbonyl]-2H-1,3-benzodioxol-5-yl}-N-phenyl-1H-indole-3-carboxamide] | 9.8 | – | 328 | – | –
10 | CCCCN(CCCC)C(=O)c1nn(-c2ccccc2C(=O)N2Cc3ccccc3C[C@H]2CN)c2ccccc12 [Example 121, 1-{2-[(3S)-3-(Aminomethyl)-1,2,3,4-tetrahydroisoquinoline-2-carbonyl]-phenyl}-N,N-dibutyl-1H-indazole-3-carboxamide] | 448 | – | 8770 | – | –
11 | Cc1cc(C(=O)N(c2ccc(O)cc2)c2ccc3[nH]ccc3c2)cn1-c1cc2c(cc1C(=O)N1Cc3ccccc3C[C@H]1CN1CCN(C)CC1)OCO2 [Example 87, N-(4-Hydroxyphenyl)-N-(1H-indol-5-yl)-5-methyl-1-(6-{[(3S)-3-[(4-methylpiperazin-1-yl)methyl]-3,4-dihydroisoquinolin-2(1H)-yl]carbonyl}-1,3-benzodioxol-5-yl)-1H-pyrrole-3-carboxamide] | 4.4 | – | 138 | – | –
12 | CN1CCN(C[C@@H]2Cc3ccccc3CN2C(=O)c2cc3c(cc2-n2cc(C(=O)N(c4ccc(O)c(Cl)c4)c4ccc5[nH]ccc5c4)c4ccccc42)OCO3)CC1 [Example 82, N-(3-Chloro-4-hydroxyphenyl)-N-(1H-indol-5-yl)-1-(6-{[(3S)-3-[(4-methylpiperazin-1-yl)methyl]-3,4-dihydroisoquinolin-2(1H)-yl]carbonyl}-1,3-benzodioxol-5-yl)-1H-indole-3-carboxamide hydrochloride] | 17.6 | – | 373 | – | –
13 | Cc1cc(C(=O)N(c2ccccc2)c2ccccc2)cn1-c1cc(O)ccc1C(=O)N1Cc2ccccc2C[C@H]1CN [Example 6, 1-(2-{[(3S)-3-(Aminomethyl)-3,4-dihydroisoquinolin-2(1H)-yl]-carbonyl}-5-hydroxyphenyl)-5-methyl-N,N-diphenyl-1H-pyrrole-3-carboxamide] | 50.5 | – | 915 | – | –
